{
  "source": "patent US10328048B2",
  "about": "“Cafestol for treating diabetes” (Aarhus Universitet, priority 2014, dated 2019)",
  "key": {"INS-1E cells [1]": {"system": "INS-1E cells", "assay": "Acute insulin secretion from INS-1E cells", "assay_type": "cell-based, rat", "parameters": "Insulin secretion, Mean: unit not given here", "details": "for Insulin secretion, Mean: 16.7 mM glucose, 60 min", "procedure": "INS-1E cells were seeded onto 24 well plates before incubation experiments. At the day of the experiment the buffer was changed to a modified Krebs-Ringer-buffer and the cells were preincubated in the same buffer for 60 min. […]"}, "[2]": {"system": "Human skeletal muscle cells", "assay": "Acute glucose uptake in human skeletal muscle cell line", "assay_type": "cell-based", "details": "100 nM insulin, 15 minutes", "procedure": "Human skeletal muscle cells were seeded in 24 wells, ([…] cells/well) containing 1 mL growth medium (Promocell, Heidelberg, Germany). Once 70-90% confluence was reached, the growth medium was replaced by 1 mL differentiation medium (Promocell, Heidelberg, Germany). This medium was changed every 2nd day for two weeks until multinucleated syncytia was visible in microscope. Cells were washed twice with PBS. 300 μL of an alternatively modified-Krebs Ringer Buffer (containing 0.1% BSA with 0.1 mM glucose, 1.5 μCi deoxy-d-glucose 2-[1,2-3H(M)] (Perkin Elmer, 2740 Skovlunde, Denmark) and 100 nM insulin was put in each well. Five types of solutions were prepared: one with […] cafestol or rosiglitazone (control), a second with a 10^−6 M cafestol, a third with a 10^−10 M cafestol, a fourth with a 10^−12 M cafestol, and a fifth with a 10^-8 M rosiglitazone. Cells were kept on ice while adding medium. After 15 minutes of incubation at 37° C., 5.0% CO2, cells were washed twice with the modified-Krebs Ringer Buffer supplemented with 0.1% BSA and 50 mM glucose, stopping the incubation and glucose uptake. Hereafter, 0.2 mL 0.1 M NaOH was added to each well for a 30 minute room temperature incubation. 0.1 mL was transferred from each well to a 24 well counting plate (Wallac Oy, Turku, Finland). After adding 0.9 mL Hisafe II scintillator (Perkin Elmer, 2740 Skovlunde, Denmark), plates were stored in the dark for 12 hours before counted using a Trilux Micro Beta Counter (Wallac Oy, Turku, Finland). “Counts per minute” is a direct measure of glucose uptake."}, "[3]": {"details": "oral 1.5 mg/mouse, cited from earlier work"}, "KKAy mice": {"system": "KKAy mice", "assay": "10 week dietary intervention study in diabetic KKAy mice", "assay_type": "in vivo", "details": "10 weeks; for Fasting plasma glucose compared to the control group: in food pellets", "procedure": "(§1) The effects of cafestol were investigated in a 10 week dietary intervention study in a type 2 diabetic animal model. Five weeks old male KKAy mice were randomly assigned to either of three intervention groups (n=12 per group), i.e. 1) Control (no cafestol added), 2) supplementation with 0.382 mg/day of cafestol/kg mice, and 3) supplementation with 1.146 mg/day of cafestol/kg mice. The cafestol was added to food pellets daily. At the beginning of the study (week 0) fasting blood glucose, insulin and lipids (total cholesterol, LDL, HDL and triglycerides) were measured. Every 2nd week fasting blood glucose, body weight and food intake was measured. At the end of the intervention (week 10) fasting blood glucose, insulin, glucagon and lipids (total cholesterol, LDL-cholesterol, HDL-cholesterol) were measured. The pancreas was removed and treated with collagenase and subsequently, the effects on insulin secretory capacity was studied in isolated islets of Langerhans. Furthermore, gene expression levels of key regulatory genes in liver, fat and muscle tissues were measured using RT-PCR."}, "INS-1E cells [4]": {"system": "INS-1E cells", "assay": "Chronic (72 hours) insulin secretion from INS-1E cells", "assay_type": "cell-based, rat", "details": "low glucose level (FIG. 2)"}, "[5]": {"details": "healthy ileostomy volunteers, cited from earlier work"}, "[6]": {"system": "isolated islets of Langerhans", "assay": "Insulin secretion experiment with isolated islets of Langerhans from KKAy mice after 10 weeks intervention", "assay_type": "in vivo", "procedure": "as §1"}, "INS-1E cells [7]": {"system": "INS-1E cells", "assay": "Chronic (72 hours) insulin secretion from INS-1E cells", "assay_type": "cell-based, rat", "parameters": "unit not given here", "procedure": "INS-1E cells were seeded onto 24 well plates and incubated for 72 hours in RPMI 1640 supplemented with cafestol. After 72 hours the buffer was changed to a modified Krebs Ringer buffer and the cells were incubated for 60 min at low (3.3 mM) and high (16.7 mM) glucose. Hereafter the medium was removed for later insulin analysis using a sensitive rat insulin kit from Linco."}},
  "note": "Entries after “also recorded” stand apart in the source; their conditions may differ.",
  "data": [
    {"smiles": "C[C@@]12CCc3occc3[C@H]1CC[C@@]13C[C@@H](CC[C@H]12)[C@@](O)(CO)C3", "note": "[Cafestol]", "values": [
      {"measurement": "Insulin secretion, Mean", "setting": "INS-1E cells [1]; cafestol 10^−6 M", "result": 0.9013},
      {"measurement": "Insulin secretion, Mean", "setting": "INS-1E cells [1]; cafestol 10^−8 M", "result": 0.8682},
      {"measurement": "Insulin secretion, Mean", "setting": "INS-1E cells [1]; cafestol 10^−10 M", "result": 0.8715},
      {"measurement": "Insulin secretion, Mean", "setting": "INS-1E cells [1]; cafestol 10^−12 M", "result": 0.8261},
      {"measurement": "Insulin secretion (change vs glucose alone)", "setting": "INS-1E cells [1]; high glucose, concentrations ranging from 10^−10 M to 10^−6 M", "result": "significant increase"},
      {"measurement": "Glucose uptake, Counts per minute (± in SEM)", "setting": "[2]; 10^−8 M", "result": "157.2 ± 2.318", "unit": "Counts per minute"},
      {"measurement": "Glucose uptake, Counts per minute (± in SEM)", "setting": "[2]; 10^−8 M, listed as cafestol", "result": "significantly increased"},
      {"measurement": "Glucose uptake, Counts per minute (± in SEM)", "setting": "[2]; 10^−10 M", "result": "151.0 ± 2.104", "unit": "Counts per minute"},
      {"measurement": "Glucose uptake, Counts per minute (± in SEM)", "setting": "[2]; 10^−12 M", "result": "146.3 ± 1.839", "unit": "Counts per minute"},
      {"measurement": "Parent compound as share of activity present in portal blood", "setting": "[3]; 50 min after administration", "result": 70, "unit": "%"},
      {"measurement": "Parent compound as share of total radioactivity present in portal blood", "setting": "[3]; two minutes after dosing", "result": 50, "unit": "%"},
      {"measurement": "Fasting plasma glucagon compared to Control", "setting": "KKAy mice; High cafestol group 1.146 mg/day/kg", "result": "significant decreased"},
      {"measurement": "Fasting plasma glucose compared to the control group", "setting": "KKAy mice; high concentration 1.146 mg/day/kg", "result": "significantly decreased; also recorded: decrease fasting plasma glucose significantly"},
      {"measurement": "HOMA-IR compared to control group", "setting": "KKAy mice; high dose of cafestol, p=0.03", "result": "significantly reduced; also recorded: significant decrease"},
      {"measurement": "Fasting plasma glucose compared to the control group", "setting": "KKAy mice; low concentration 0.382 mg/day/kg", "result": "significantly decreased; also recorded: decrease fasting plasma glucose significantly"},
      {"measurement": "HOMA-IR compared to control group", "setting": "KKAy mice; low dose of cafestol", "result": "tendency to be reduced"},
      {"measurement": "Glucagonostatic effect", "setting": "INS-1E cells [4]", "result": "significant glucagonostatic effect"},
      {"measurement": "Absorbed from the gastrointestinal tract", "setting": "[5]; estimated from recovery in ileostomy effluent", "result": "approximately 70%"},
      {"measurement": "Dose recovered in urine", "setting": "[5]", "result": "approximately 1%"},
      {"measurement": "Glucose sensitivity of islets (insulin secretion) compared to Control", "setting": "[6]; after 10 weeks intervention with cafestol", "result": "more glucose sensitive"},
      {"measurement": "Insulin stimulation at low glucose concentration", "setting": "[6]; islets after 10 weeks intervention, low glucose", "result": "not present"},
      {"measurement": "Insulin secretion, Mean", "setting": "INS-1E cells [7]; 3.3 mM glucose, 72 hours incubation with cafestol 10^−8 M", "result": 0.7482},
      {"measurement": "Insulin secretion, Mean", "setting": "INS-1E cells [7]; 3.3 mM glucose, 72 hours incubation with cafestol 10^−8 M, listed as cafestol", "result": "stimulatory effect"},
      {"measurement": "Insulin secretion, Mean", "setting": "INS-1E cells [7]; 3.3 mM glucose, 72 hours incubation with cafestol 10^−10 M", "result": 0.5853},
      {"measurement": "Insulin secretion, Mean", "setting": "INS-1E cells [7]; 3.3 mM glucose, 72 hours incubation with cafestol 10^−10 M, listed as cafestol", "result": "neutral effect"},
      {"measurement": "Insulin secretion, Mean", "setting": "INS-1E cells [7]; 3.3 mM glucose, 72 hours incubation with cafestol 10^−12 M", "result": 0.4999},
      {"measurement": "Insulin secretion, Mean", "setting": "INS-1E cells [7]; 3.3 mM glucose, 72 hours incubation with cafestol 10^−12 M, listed as cafestol", "result": "significantly decreased"},
      {"measurement": "Insulin secretion, Mean", "setting": "INS-1E cells [7]; 16.7 mM glucose, 72 hours incubation with cafestol 10^−8 M", "result": 1.661},
      {"measurement": "Insulin secretion, Mean", "setting": "INS-1E cells [7]; 16.7 mM glucose, 72 hours incubation with cafestol 10^−8 M, listed as cafestol", "result": "significant increase"},
      {"measurement": "Insulin secretion, Mean", "setting": "INS-1E cells [7]; 16.7 mM glucose, 72 hours incubation with cafestol 10^−10 M", "result": 1.322},
      {"measurement": "Insulin secretion, Mean", "setting": "INS-1E cells [7]; 16.7 mM glucose, 72 hours incubation with cafestol 10^−10 M, listed as cafestol", "result": "significant increase"},
      {"measurement": "Insulin secretion, Mean", "setting": "INS-1E cells [7]; 16.7 mM glucose, 72 hours incubation with cafestol 10^−12 M", "result": 0.9279}
    ]}
  ]
}
